BindingDB's records for doi:10.1016/s0014-2999(97)01510-0 (Hospital Saint-Antoine, 1998)

Biological target: T1, 5'-nucleotidase (Rattus norvegicus, UniProt P21588)
T1 sequence (P21588 whole entry): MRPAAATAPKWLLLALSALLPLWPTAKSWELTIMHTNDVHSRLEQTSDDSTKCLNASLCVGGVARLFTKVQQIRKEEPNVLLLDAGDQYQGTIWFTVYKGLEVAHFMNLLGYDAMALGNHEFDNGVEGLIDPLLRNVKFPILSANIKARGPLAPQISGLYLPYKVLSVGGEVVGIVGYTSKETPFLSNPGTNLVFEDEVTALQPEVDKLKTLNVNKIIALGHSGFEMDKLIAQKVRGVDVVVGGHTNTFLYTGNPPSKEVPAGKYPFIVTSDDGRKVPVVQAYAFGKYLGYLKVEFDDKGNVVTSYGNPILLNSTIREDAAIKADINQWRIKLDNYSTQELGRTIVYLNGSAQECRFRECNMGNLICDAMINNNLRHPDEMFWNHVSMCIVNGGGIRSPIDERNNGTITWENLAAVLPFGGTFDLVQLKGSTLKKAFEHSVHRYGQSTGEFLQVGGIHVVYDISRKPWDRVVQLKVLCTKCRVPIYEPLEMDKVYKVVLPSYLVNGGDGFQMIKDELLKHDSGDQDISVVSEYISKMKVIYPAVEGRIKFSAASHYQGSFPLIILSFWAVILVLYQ

Ki: 124 nM
Compound: COc1cccc(OC)c1-c1cc(C(=O)NC2(C(=O)O)C3CC4CC(C3)CC2C4)nn1-c1ccnc2cc(Cl)ccc12 (stereo unspecified)
